Experimental data from PMC10265003 (Royal Society Open Science, 2023).
pIC50: −log10 of the molar value. Positions of bridges follow the written chain, without caps; N, C: chain ends. Non-standard residues stand in square brackets, D forms with d. Residues, ends and D or L forms follow the SMILES beside them. Chains are numbered I, II in the order given. 1Nal = N[C@@H](Cc1cccc2ccccc12)C(=O)O; Ahx = NCCCCCC(=O)O

Key:
trypsin = trypsin (Sus scrofa, UniProt P00761)
Experimental: Trypsin (20 μg) was dissolved in 450 µl of the buffer supplied by the manufacturer, and 50 µl was added to each peptide solution, maintaining a protease : peptide ratio of 1 : 100 (w/w). The samples were incubated at 37°C for 24 h. Aliquots were taken at 0, 5, 10, 15 and 20 min, the enzymatic reaction was stopped by adding 1 M HCl, and the mixture was analysed via RP-HPLC and LC-MS. Bovine serum albumin (BSA) and bovine lactoferrin (bLF) were used as the positive control, and the negative control was the peptide in buffer solution without trypsin.

human erythrocytes = assay type: cell-based; details: for IC50 erythrocytes: 2 h; for selectivity index IC50 erythrocytes/IC50 MCF-7 / selectivity index IC50 erythrocytes/IC50 HeLa: ratio of IC50 values; for selectivity index IC50 erythrocytes/IC50 HeLa: in brackets
Experimental: Haemolysis assays were performed in accordance with Cárdenas et al.. The blood was donated by healthy volunteers with blood type O^+. First, 5 ml of peripheral blood in EDTA was centrifuged at 500 r.p.m. for 15 min, and the erythrocytes were separated and washed three times with 0.9% saline solution. Then 100 µl of peptide solution (final concentrations of 200 at 6.2 µg ml^−1) was mixed with 100 µl of erythrocytes (2% haematocrit) and incubated at 37°C for 2 h. It was then centrifuged at 2500 r.p.m. for 5 min and the absorbance of the supernatant was measured at 450 nm. Two controls were used; positive control: distilled water, and negative control: saline solution 0.9%.

MCF-7 breast cancer line = assay type: cell-based, human; details: 2 h
Experimental: (§1) The MTT assay was performed in accordance with previous reports. Briefly, the cells were seeded with a complete medium in 96-well plates at a rate of 10 000 cells and 100 µl per well, and adhesion to the plates was allowed for 24 h. Later, the complete medium was removed, and an incomplete medium was added for synchronization for another 24 h. The cells were then incubated at 37°C for 2 h with 100 µl of peptide at the evaluated concentrations (200, 100, 50, 25, 12.5 and 6.25 µg ml^−1). Next, the peptide was removed from the well and 100 µl of incomplete medium with 10% MTT was added and incubated for 4 h. The medium was replaced with 100 µl of isopropanol, and after 30 min of incubation at 37°C, the absorbance was measured at 575 nm. As a negative control, an incomplete culture medium with 10% MTT was used, and as a positive control, cells without MTT treatment were used. The IC50 value was determined from figure 1 (peptide concentration versus per cent cell viability) using a nonlinear regression model with variable slope and GraphPad Prism 9 statistical analysis software.

CD1 mice = assay: Peptide toxicity in vivo model (Irwin test, survival); details: for observed signs after ip administration (Irwin test): ip 70 mg kg^−1; for survival (%) sc: single sc dose 70 mg kg^−1, n = 3
Experimental: Experiment 1. CD1 mice male (eight weeks old, weighing 33–35 g) were housed in groups of six animals per cage for each peptide ^26[F] and ^26[1-Nal]; three mice were inoculated by intraperitoneal via ip, and three mice were inoculated by subcutaneous via sc. Mice inoculated via ip or sc with saline solution were used as control. The peptide was dissolved in saline solution (7 mg ml^−1) and the mice were inoculated only one time with 0.33–0.35 ml (dosage 70 mg kg^−1) via ip or sc. Experiment 2. CD1 mice female (n = 4, eight weeks old, weighing 33–35 g) were inoculated only one time with peptide ^26[F] (dosage 140 mg kg^−1) or ^26[1-Nal] (8.8 to 70 mg kg^−1).
To determine the toxicity of peptides ^26[F] and ^26[1-Nal] in vivo model, a preliminary study was carried out in CD1 male mice. The Irwin test was used to evaluate in qualitative manner the effect of peptide administration over motor functions, behaviour, physiology and pharmacological safety in rodents. This test is used as a first approach to study of the adverse effects generated by a pharmaceutical treatment in an in vivo model in preclinical test.

[1] = system: human primary fibroblasts; assay type: cell-based; details: for IC50 fibroblasts: 2 h; for selectivity index IC50 fibroblasts/IC50 MCF-7 / selectivity index IC50 fibroblasts/IC50 HeLa: ratio of IC50 values; for selectivity index IC50 fibroblasts/IC50 HeLa: in brackets
From the text: Rink amide resin, Fmoc-Arg(Pbf)-OH, Fmoc-Trp(Boc)-OH, Fmoc-Gln(Trt)-OH, Fmoc-Phe-OH, Fmoc-Lys(Boc)-OH, Fmoc-Leu-OH, Fmoc-Gly-OH, Fmoc-6-Ahx-OH, Fmoc-Lys(Fmoc)-OH, Triton-X, piperidine, N,N-dimethylformamide (DMF), dichloromethane (DCM), dicyclohexylcarbodiimide (DCC), 1-hydroxy-6-chloro-benzotriazole (6-Cl-HOBt), ninhydrin, potassium cyanide (KCN), ethanol, pyridine, phenol, trifluoroacetic acid (TFA), ethyl ether, triisopropylsilane (TIS), ethanedithiol (EDT), acetonitrile (ACN), methanol (MeOH) and solid phase extraction columns Supelco, Trypsin-EDTA solution and pepsin 2500 units mg^−1 were purchased from Sigma-Aldrich (St Louis, MO, USA). The non-natural amino acids diphenylalanine, 1-naphthyl-phenylalanine, 4-benzoyl-phenylalanine, homophenylalanine (hF), 4-(Fmoc-amino) benzoic acid (4-Abz) and 2-(Fmoc-amino) benzoic acid (2-Abz) were obtained from AAPPTec (Louisville, KY, USA). The cell lines MCF-7, HeLa, HEK-293 were purchased from ATCC (Manassas, VA). The primary cell culture of fibroblasts was obtained from the foreskin by the Laboratory of Cellular Physiology of the National University of Colombia, and the fibroblasts were cultured and frozen. Some vials were thawed and cultured for up to seven passes, since no transformation/immortalization was done. Annexin V and Alexa Fluor 488 conjugate was purchased from Invitrogen (Eugene, Oregon). The DMEM culture medium and trypsin were obtained from Sigma-Aldrich (St Louis, MO, USA). Bovine fetal serum was purchased from Gibco (Waltham, MA, USA). Calcium assay kit and Fluorescein CaspGLOW Active Caspase-8 or Caspase-9 Staining Kit were obtained for BD Biosciences (San Diego, CA, USA) and Invitrogen Thermo Fisher Scientific (Waltham, MA, USA), respectively.
as §1, with “The cells were then incubated at 37°C for 2 h with 100 µl of peptide at the evaluated concentrations (200, 100, 50, 25, 12.5 and 6.25 µg ml^−1).” left out

[2] = system: HeLa human cervical cancer cell line; assay type: cell-based; details: 2 h
Experimental: as §1

[3] = system: HEK-293 human kidney cell line; assay type: cell-based; details: for IC50 HEK-293: 2 h; for selectivity index IC50 HEK-293/IC50 MCF-7 / selectivity index IC50 HEK-293/IC50 HeLa: ratio of IC50 values; for selectivity index IC50 HEK-293/IC50 HeLa: in brackets
Experimental: as §1, with “The cells were then incubated at 37°C for 2 h with 100 µl of peptide at the evaluated concentrations (200, 100, 50, 25, 12.5 and 6.25 µg ml^−1).” left out

pepsin [4] = target: pepsin (Sus scrofa, UniProt P00791); details: pH 2
Experimental: Pepsin was dissolved in 0.010 M HCl (pH 2.0). An aliquot of 50 µl was added to each peptide solution in a 1 : 100 (w/w) ratio. The peptides were dissolved in H2O-TFA 0.05% (v/v). This was incubated at 37°C for 3 h, aliquots were taken at 0 and 3 h, and the samples were heated for 5 min and then cooled at 4°C for the thermal inactivation of pepsin and characterized via HPLC and LC-MS.

pepsin [5] = assay: Pepsin dissolved in 0.010 M HCl (pH 2.0); peptides dissolved in H2O-TFA 0.05% (v/v); details: 37°C, up to 3 h
[6] = experiment 1, male CD1 mice, single ip dose 70 mg kg^−1, n = 3, one week of observation

Sequence of trypsin (P00761 9-231): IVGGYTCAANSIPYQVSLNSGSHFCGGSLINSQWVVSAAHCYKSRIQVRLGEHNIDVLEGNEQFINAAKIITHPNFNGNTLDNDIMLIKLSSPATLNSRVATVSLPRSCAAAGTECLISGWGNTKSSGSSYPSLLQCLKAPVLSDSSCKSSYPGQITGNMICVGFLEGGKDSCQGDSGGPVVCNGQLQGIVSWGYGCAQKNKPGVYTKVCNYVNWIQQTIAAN
Sequence of pepsin (Sus scrofa, UniProt P00791) (P00791 60-385): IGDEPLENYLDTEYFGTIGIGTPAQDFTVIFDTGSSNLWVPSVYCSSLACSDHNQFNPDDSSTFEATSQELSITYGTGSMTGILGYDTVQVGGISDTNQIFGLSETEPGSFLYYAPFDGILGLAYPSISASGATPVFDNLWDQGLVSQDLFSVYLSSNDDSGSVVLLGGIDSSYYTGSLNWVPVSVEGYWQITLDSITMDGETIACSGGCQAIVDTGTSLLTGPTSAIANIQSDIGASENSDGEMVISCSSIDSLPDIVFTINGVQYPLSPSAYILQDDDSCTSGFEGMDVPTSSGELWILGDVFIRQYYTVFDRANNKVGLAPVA

Compound | proteolytic degradation by trypsin, 10 min (trypsin) | IC50 erythrocytes (human erythrocytes) | selectivity index IC50 erythrocytes/IC50 MCF-7 (human erythrocytes) | selectivity index IC50 erythrocytes/IC50 HeLa (human erythrocytes) | pIC50 (MCF-7 breast cancer line) | IC50 MCF-7 (MCF-7 breast cancer line) | observed signs after ip administration (Irwin test) (CD1 mice; experiment 1, male CD1 mice) | survival (%) ip (CD1 mice; [6]) [%] | survival (%) sc (CD1 mice; experiment 1, male CD1 mice) [%] | IC50 fibroblasts [1] | selectivity index IC50 fibroblasts/IC50 MCF-7 [1] | selectivity index IC50 fibroblasts/IC50 HeLa [1] | IC50 HeLa [2] | IC50 HEK-293 [3] | selectivity index IC50 HEK-293/IC50 MCF-7 [3] | selectivity index IC50 HEK-293/IC50 HeLa [3] | proteolytic degradation by pepsin (pepsin [4]) | not cleaved (pepsin [5]) | also measured
CC(C)C[C@H](NC(=O)[C@H](CCCCN)NC(=O)[C@H](CCCCN)NC(=O)[C@H](Cc1cccc2ccccc12)NC(=O)[C@H](CCCNC(=N)N)NC(=O)[C@H](Cc1c[nH]c2ccccc12)NC(=O)[C@H](CCC(N)=O)NC(=O)[C@H](Cc1c[nH]c2ccccc12)NC(=O)[C@H](CCCNC(=N)N)NC(=O)[C@@H](N)CCCNC(=N)N)C(=O)NCC(=O)NCCCC[C@H](NC(=O)CNC(=O)[C@H](CC(C)C)NC(=O)[C@H](CCCCN)NC(=O)[C@H](CCCCN)NC(=O)[C@H](Cc1cccc2ccccc12)NC(=O)[C@H](CCCNC(=N)N)NC(=O)[C@H](Cc1c[nH]c2ccccc12)NC(=O)[C@H](CCC(N)=O)NC(=O)[C@H](Cc1c[nH]c2ccccc12)NC(=O)[C@H](CCCNC(=N)N)NC(=O)[C@@H](N)CCCNC(=N)N)C(=O)NCCCCCC(N)=O [^26[1-Nal], (RRWQWR-1-Nal-KKLG)2-K-Ahx] (I: H-RRWQWR[1Nal]KKLGK[Ahx]-NH2 / II: H-RRWQWR[1Nal]KKLG; amide I:12-II:C) | less degradation, with the majority being intact dimeric peptide | >200(>58) µg mL^−1 | > 4.1 | > 3.6 | 4.85 | 48(14) µg mL^−1 | motor function decreased 30 min after peptide administration and abdominal contortions were observed | 33 | 100 | 30(9) µg mL^−1 | 0.6 | 0.5 | 55(16) µg mL^−1 | 86(25) µg mL^−1 | 1.8 | 1.5 | unaffected | – | proteolytic degradation by trypsin, 3 h (trypsin): three main species, with tR = 3.7, 5.4 min and unaffected peptide tR = 6.4 min; survival (%) ip (CD1 mice; experiment 2, female CD1 mice, single ip dose 8.8 mg kg^−1, n = 3): 100%; survival (%) ip (CD1 mice; experiment 2, female CD1 mice, single ip dose 17.5 mg kg^−1, n = 3): 100%; survival (%) ip (CD1 mice; experiment 2, female CD1 mice, single ip dose 35.0 mg kg^−1, n = 3): 100%; survival (%) ip (CD1 mice; experiment 2, female CD1 mice, single ip dose 70.0 mg kg^−1, n = 3): 100%
CC(C)C[C@H](NC(=O)[C@H](CCCCN)NC(=O)[C@H](CCCCN)NC(=O)[C@H](Cc1ccccc1)NC(=O)[C@H](CCCNC(=N)N)NC(=O)[C@H](Cc1c[nH]c2ccccc12)NC(=O)[C@H](CCC(N)=O)NC(=O)[C@H](Cc1c[nH]c2ccccc12)NC(=O)[C@H](CCCNC(=N)N)NC(=O)[C@@H](N)CCCNC(=N)N)C(=O)NCC(=O)NCCCC[C@H](NC(=O)CNC(=O)[C@H](CC(C)C)NC(=O)[C@H](CCCCN)NC(=O)[C@H](CCCCN)NC(=O)[C@H](Cc1ccccc1)NC(=O)[C@H](CCCNC(=N)N)NC(=O)[C@H](Cc1c[nH]c2ccccc12)NC(=O)[C@H](CCC(N)=O)NC(=O)[C@H](Cc1c[nH]c2ccccc12)NC(=O)[C@H](CCCNC(=N)N)NC(=O)[C@@H](N)CCCNC(=N)N)C(=O)NCCCCCC(N)=O [^26[F], (RRWQWR-F-KKLG)2-K-Ahx] (I: H-RRWQWRFKKLGK[Ahx]-NH2 / II: H-RRWQWRFKKLG; amide I:12-II:C) | disappeared completely | >200(>58) µg mL^−1 | > 2.5 | > 8.3 | 4.64 | 79(23) µg mL^−1 | motor function decreased 30 min after peptide administration and abdominal contortions were observed | 100 | 100 | 121(35) µg mL^−1 | 1.5 | 5.0 | 24(7) µg mL^−1 | 203(59) µg mL^−1 | 2.6 | 8.4 | degraded into two fragments | – | proteolytic degradation by trypsin, 5 min (trypsin): two fragments were also generated; survival (%) ip (CD1 mice; experiment 2, female CD1 mice, single ip dose 140.0 mg kg^−1, n = 4): 0%; observed signs after ip administration (CD1 mice; female mice, ip 140 mg kg^−1, after 30 min of treatment): decreased motor function, abdominal contractions, excess irrigation, marked ataxia and loss of coordination
(RRWQWR-1-Nal-KKLG)2-K-Ahx | – | – | – | – | – | – | – | – | – | – | – | – | – | – | – | – | – | pepsin treatment for 3 h did not induce proteolytic degradation | –
(RRWQWR-hF-KKLG)2-K-Ahx | – | – | – | – | – | – | – | – | – | – | – | – | – | – | – | – | – | pepsin treatment for 3 h did not induce proteolytic degradation | –
